# Patent US5534554A, “Sucrose ester-C20 to C28 alcohol formulations” (priority 1994, dated 1996)
# “Also recorded” adds a separate entry of the source.
# Assays:
# [1] = system: recurrent herpes labialis; assay: Study A: Phase 2 study in recurrent herpes labialis; type: in vivo, human; conditions: for time to healing, mean: 10% cream, all treatment episodes
# Description: (§1) Two clinical efficacy studies have been completed. Study A was a randomized, double-blind, placebo-controlled Phase 2 study in 63 patients (male and female) with recurrent herpes labialis. All of the 31 n-docosanol 10% cream-treated patients in the herpes labialis study, Study A, completed their treatment; 2 of those 31 patients reported a burning or stinging sensation after application of the cream. […] Study B was a randomized, double-blind, placebo-controlled trial in 44 female patients with recurrent herpes genitalis.
# Sixty five patients (aged 18-60) took part in the Study A, 32 patients were initially randomized to receive 10% n-docosanol cream and 33 were initially randomized to receive placebo cream. Treatment was patient-initiated, and treatment initiation was defined as `early` if the treatment started at prodrome or erythema stage and as `late` if started at the papule stage or later. Two patients were excluded from the analysis. Of the 63 evaluable patients, 22 were entered into the cross-over phase of the study. In addition, 13 patients treated more than one episode with the same study medication. Therefore, a total of 98 herpes episodes--48 treated with 10% n-docosanol cream and 50 treated with placebo cream--were analyzed.
# [2] = system: recurrent herpes genitalis; assay: Study B: trial in female patients with recurrent herpes genitalis; type: in vivo, human; conditions: all patients
# Description: as §1
# In the first clinical study, sixty female patients with recurrent herpes genitalis entered the study while symptom-free and not in a prodromal stage. […]
# Three pain analyses were conducted, based on patients' self-assessment of pain: time to sustained "no pain"; time to first "no pain"; and time to first reduction of pain. Time to sustained "no pain" was measured from the time of first pain at application to the time when 1 ) pain was scored as "no pain" for a minimum of 2 consecutive recordings; and 2) during the remainder of the episode, additional pain recordings were no more frequent and severe than 2 separated episodes of 2 consecutive recordings of "mild" pain. […] Time to first reduction in pain was measured from the time of first pain at application to the first time when a decrease in pain level was noted, relative to the previous assessment. […]
# virus = assay: Direct virucidal activity; conditions: n-docosanol suspension
# Description: (§2) The collective implications of the results of the studies are that the compound appears to interfere with one or more of the common pathways of viral entry into the cell and migration to the nucleus of infected target cells.
# HSV-specific receptors = assay: Binding of herpes virus to HSV-specific receptors on target cells; type: cell-based
# Description: as §2
# HSV = assay: Secondary plaque assay of infectious virions; type: cell-based; conditions: secondary plaque assay cultures
# Description: Finally, the replication of infectious virions as measured in secondary plaque assay cultures is markedly diminished by 99% or more in n-docosanol-treated cells.
# Friend virus [3] = assay: Friend virus-induced leukemia and viremia in mice; type: in vivo, BALB/c mice; conditions: intravenous
# Friend Virus [4] = assay: Replication of Friend Virus in vitro in primary embryo fibroblast cultures; type: cell-based, murine
# Human Herpesvirus-6 = assay: Antiviral activity against human herpesvirus-6; type: cell-based
# Varicella Zoster Virus = assay: Antiviral activity against varicella zoster virus; type: cell-based; conditions: Table 6, human viruses
# Cytomegalovirus [5] = assay: Antiviral activity against human cytomegalovirus; type: cell-based, human virus; conditions: Table 6, human viruses
# Influenza A = assay: Antiviral activity against influenza A; type: cell-based; conditions: Table 6, human viruses
# Cytomegalovirus [6] = assay: Antiviral activity against murine cytomegalovirus; type: cell-based, murine virus; conditions: Table 6, murine viruses
# LP-BM5 Virus = assay: Antiviral activity against LP-BM5 virus; type: cell-based; conditions: Table 6, murine viruses
# reovirus = assay: Antiviral activity against reovirus; type: cell-based; conditions: nonenveloped virus
# [7] = system: Herpes simplex virus type 2; assay: Inhibition of HSV type 2 infectivity in simian and human cell lines; type: cell-based, HSV-2
# Vero cells [8] = system: Vero cells
# Vero cells [9] = system: Vero cells; remark: listed apart in the source
# viruses = conditions: U.S. Pat. No. 4,874,794; cited from earlier work
# prostate gland = conditions: oral, U.S. Pat. No. 4,186,211; cited from earlier work
smiles,measurement,setting,value
CCCCCCCCCCCCCCCCCCCCCCO [n-docosanol],"time to healing, mean",[1]; all treatments,5.7 days
same,"time to healing, mean",[1]; early treatment,3.4 days
same,reduction in mean overall healing time versus placebo,"[1]; all 98 episodes, P=0.02",1.6 days
same,reduction in mean healing time,"[1]; all episodes, early treatment, P=0.05",3.3 days
same,"difference in healing time, late treatment","[1]; cross-over portion, P=0.03",significant difference in favor of n-docosanol
same,average healing time based on patient ratings,"[2]; 10% cream, placebo 4.5",5.6 days
same,difference in mean time to healing versus placebo,[2]; p=0.2703,no statistically significant difference
same,direct virucidal activity,virus,no direct virucidal activity
same,effect on viral binding to receptors,HSV-specific receptors,does not interfere with binding of herpes virus; also recorded: no effect
same,decrease of replication of infectious virions,HSV,≥ 99%
same,inhibition of development of leukemic foci,Friend virus [3]; FIG. 12 Panel A,very clear dose-related inhibitory affect
same,inhibition of development of viremia,Friend virus [3]; FIG. 12 Panel B,very clear dose-related inhibitory affect
same,susceptibility to antiviral activity: Friend Leukemia Virus,"Friend Virus [4]; Table 6, murine viruses",susceptible
same,activity against replication of Friend Virus in vitro,Friend Virus [4]; primary embryo fibroblast cultures,very potent activity
same,inhibition of in vitro replication of human herpes virus 6,Human Herpesvirus-6,inhibits in vitro replication
same,susceptibility to antiviral activity: Human Herpesvirus-6,"Human Herpesvirus-6; Table 6, human viruses",susceptible
same,susceptibility to antiviral activity: Varicella Zoster Virus,Varicella Zoster Virus,susceptible
same,susceptibility to antiviral activity: Cytomegalovirus,Cytomegalovirus [5],susceptible
same,susceptibility to antiviral activity: Influenza A,Influenza A,susceptible
same,susceptibility to antiviral activity: Cytomegalovirus,Cytomegalovirus [6],susceptible
same,susceptibility to antiviral activity: LP-BM5 Virus,LP-BM5 Virus,susceptible
same,activity against reovirus,reovirus,no detectable activity
same,susceptibility to antiviral activity: Herpes Simplex - 2,[7]; Table 6,susceptible
same,inhibitory activity in vitro,[7]; suspension in Pluronic F-68,excellent inhibitory activity
same,fraction of total n-docosanol cell-associated,Vero cells [8],less than 1%
same,molecules per cell,Vero cells [8],~8×10^9 molecules per cell
same,radioactive compound in cell membranes,Vero cells [8],75%
same,radioactive compound in nuclear fractions,Vero cells [8],less than 1%
same,reversibility of cell association,Vero cells [8],irreversible
same,time of peak uptake per cell,Vero cells [8],6 to 12 h
same,"total uptake, Tetronic versus Pluronic suspension",Vero cells [8],equivalent
same,counts migrating in the region of phosphatidylcholine,Vero cells [9],approximately 62%
same,counts migrating in the region of phosphatidylethanolamine,Vero cells [9],~38%
same,"levels of metabolic conversion, Tetronic relative to Pluronic",Vero cells [9],3 fold
same,metabolic conversion,Vero cells [9],progressively metabolized to polar compounds
same,antiviral properties,viruses,favorable
same,treatment of enlargement of the prostate gland,prostate gland,therapeutically effective
